Legend:
Wnt pathway = assay: Cellular assay for Wnt pathway activity (luciferase reporter cell based assay); conditions: 24 h, HEK293 luciferase reporter cell line (ER-DSH, TCF dependent promoter), induced with estrogen (1 μM), read-out: 7df3 IC50
[1] = CLint (intrinsic clearance) assay, microsomal incubation; assay type: in vitro ADME, Human; conditions: NADPH, 37° C., up to 30 min; for microsomal CLint at 0.8 μM: human, liver microsomes, pH 7.4, human liver microsomes 0.5 mg/mL protein; for Human Clint: human liver microsomes 0.5 mg/mL protein
Procedure: 2. CLint (Intrinsic Clearance) Assay
A Tecan Genesis workstation (RWS ASY 150/8) was used to perform the microsomal incubations. Analysis was carried out using a Waters ACQUITY UPLC system coupled to an ABSciex API3000 mass spectrometer. Data analysis was performed using Assay Explorer (Symyx).
0.1 M potassium phosphate buffer pH 7.4 containing 1 mM MgCl2
15 mM NADPH in phosphate buffer
5.0 mg protein/mL liver microsomes in phosphate buffer
Each experiment consists of 12 test and 2 reference compounds. The reference compounds are incubated as a cocktail.
Dilution of test compounds was done in 2 steps from a 10 mM DMSO stock solution. First 4 μL stock solution was added to 196 μL of 20% DMSO in potassium phosphate buffer pH 7.4. In a second step 10 μL of the first dilution were added to […] potassium phosphate buffer and 100 μL internal standard solution to a final concentration of 0.8 μM. 100 μL of the final compound dilution were aliquoted into a 96 deep well plate. 12.5 μL liver microsomes were added to each well (0.5 mg/mL final protein concentration) and the samples preincubated for 5 min at 37° C. and 800 rpm agitation.
After the preincubation, 250 μL cold acetonitrile were added to the 0 min samples to prevent a reaction. Following this, 12.5 μL NADPH solution were added to all wells to start the incubation, with the exception of the 0 min and 30 min controls without cofactor, where the NADPH was substituted for phosphate buffer.
The incubations were stopped after 5, 10, 20 and 30 min by adding 250 μL cold acetonitrile to the individual wells.
The quenched samples were then centrifuged at 4000 g for 1 h at 4° C. 100 μL of the supernatant were transferred into 96 well plates for analysis.
The metabolic stability of each compound was determined by measurement of the change in LC-MS/MS peak area over time. Assay Explorer software was used to automatically calculate the slope k of the decline. The intrinsic clearance (CLint) of each compound was then calculated according to the formula: CLint(μL/min/mg protein)=k1000/protein concentration.
CLint is shown for each compound in Table 3 below.

Row | IC50 (Wnt pathway) [nM] | microsomal CLint at 0.8 μM [1] [µL/min/mg] | Human Clint [1] [µL/min/mg] | Compound
1 | 6.2 | 83 | – | Cn1cc(-c2ccc(-c3cncc(Cl)c3N3CCC4(CCNC4=O)CC3)cc2)cn1 [Example 89, 8-{3-Chloro-5-[4-(1-methyl-1H-pyrazol-4-yl)-phenyl]-pyridin-4-yl}-2,8-diaza-spiro[4.5]decan-1-one]
2 | 22 | 24 | – | CC1=NC(=O)C2(CCN(c3c(Cl)cncc3-c3ccc(-c4cnn(C)c4)cc3)CC2)N1 [Example 20, 8-{3-Chloro-5-[4-(1-methyl-1H-pyrazol-4-yl)-phenyl]-pyridin-4-yl}-2-methyl-1,3,8-triaza-spiro[4.5]dec-2-en-4-one]
3 | 3.8 | 30 | – | CC(C)n1cc(-c2ccc(-c3cncc(Cl)c3N3CCC4(CC3)NCNC4=O)cc2)cn1 [Example 78, 8-{3-Chloro-5-[4-(1-isopropyl-1H-pyrazol-4-yl)-phenyl]-pyridin-4-yl}-1,3,8-triaza-spiro[4.5]decan-4-one]
4 | 39 | 49 | – | COC(=O)Nc1n[nH]c2cc(-c3cncc(Cl)c3N3CCC4(CCNC4=O)CC3)ccc12 [Example 23, {6-[5-Chloro-4-(1-oxo-2,8-diaza-spiro[4.5]dec-8-yl)-pyridin-3-yl]-1H-indazol-3-yl}-carbamic acid methyl ester]
5 | 43 | 27 | – | O=C1CCc2ccc(-c3cncc(Cl)c3N3CCC4(CCNC4=O)CC3)cc2N1 [Example 12, 7-[5-Chloro-4-(1-oxo-2,8-diaza-spiro[4.5]dec-8-yl)-pyridin-3-yl]-3,4-dihydro-1H-quinolin-2-one]
6 | 10 | 23 | – | Cn1ncc2cc(-c3cncc(Cl)c3N3CCC4(CC3)CNC(=O)O4)ccc21 [Example 4, 8-[3-Chloro-5-(1-methyl-1H-indazol-5-yl)-pyridin-4-yl]-1-oxa-3,8-diaza-spiro[4.5]decan-2-one]
7 | 28 | 13 | – | Cn1ncc2ccc(-c3cncc(Cl)c3N3CCC4(CC3)CNC(=O)O4)cc21 [Example 10, 8-[3-Chloro-5-(1-methyl-1H-indazol-6-yl)-pyridin-4-yl]-1-oxa-3,8-diaza-spiro[4.5]decan-2-one]
8 | 21 | < 10 | – | CC1=NC(=O)C2(CCN(c3c(Cl)cncc3-c3ccc4c(cnn4C)c3)CC2)N1 [Example 19, 8-[3-Chloro-5-(1-methyl-1H-indazol-5-yl)-pyridin-4-yl]-2-methyl-1,3,8-triaza-spiro[4.5]dec-2-en-4-one]
9 | 7.3 | 47 | – | Cn1ncc2cc(-c3cncc(Cl)c3N3CCC4(CC3)NCNC4=O)ccc21 [Example 82, 8-[3-Chloro-5-(1-methyl-1H-indazol-5-yl)-pyridin-4-yl]-1,3,8-triaza-spiro[4.5]decan-4-one]
10 | 9.1 | – | 36 | CN1c2ccc(-c3cncc(F)c3N3CCC4(CCNC4=O)CC3)cc2CS1(=O)=O [Example 76, 8-[3-Fluoro-5-(1-methyl-2,2-dioxo-2,3-dihydro-1H-2l6-benzo[c]isothiazol-5-yl)-pyridin-4-yl]-2,8-diaza-spiro[4.5]decan-1-one]
11 | 14 | 12 | – | CS(=O)(=O)CCn1cc(-c2ccc(-c3cncc(Cl)c3N3CCC4(CC3)CNC(=O)O4)cc2)cn1 [Example 39, 8-(3-Chloro-5-{4-[1-(2-methanesulfonyl-ethyl)-1H-pyrazol-4-yl]-phenyl}-pyridin-4-yl)-1-oxa-3,8-diaza-spiro[4.5]decan-2-one]
12 | 9.7 | 16 | – | O=C1NCC2(CCN(c3c(Cl)cncc3-c3ccc4oc(=O)[nH]c4c3)CC2)O1 [Example 8, 8-[3-Chloro-5-(2-oxo-2,3-dihydro-benzooxazol-5-yl)-pyridin-4-yl]-1-oxa-3,8-diaza-spiro[4.5]decan-2-one]
13 | 28 | < 10 | – | CC(C)n1cc2cc(-c3cncc(Cl)c3N3CCC4(CC3)CNC(=O)O4)ccc2n1 [Example 94, 8-[3-Chloro-5-(2-isopropyl-2H-indazol-5-yl)-pyridin-4-yl]-1-oxa-3,8-diaza-spiro[4.5]decan-2-one]
14 | 23 | 28 | – | O=C1NCC2(CCN(c3c(Cl)cncc3-c3ccc4cnccc4c3)CC2)O1 [Example 50, 8-(3-Chloro-5-isoquinolin-6-yl-pyridin-4-yl)-1-oxa-3,8-diaza-spiro[4.5]decan-2-one]
15 | 42 | 26 | – | CC1NC(=O)OC12CCN(c1c(Cl)cncc1-c1ccc(-c3cnn(C)c3)cc1)CC2 (racemic) [Example 97, 8-{3-Chloro-5-[4-(1-methyl-1H-pyrazol-4-yl)-phenyl]-pyridin-4-yl}-4-methyl-1-oxa-3,8-diaza-spiro[4.5]decan-2-one]
16 | 1.1 | 89 | – | Cn1cc(-c2ccc(-c3cncc(Cl)c3N3CCC4(CC3)C(=O)Nc3ccccc34)cc2)cn1 [Example 69]
17 | 2.4 | 57 | – | CN1c2ccc(-c3cncc(Cl)c3N3CCC4(CC3)C[C@@H](C(F)(F)F)NC4=O)cc2CS1(=O)=O [Example 42, (S)-8-[3-Chloro-5-(1-methyl-2,2-dioxo-2,3-dihydro-1H-2l6-benzo[c]isothiazol-5-yl)-pyridin-4-yl]-3-trifluoromethyl-2,8-diaza-spiro[4.5]decan-1-one]
18 | 12 | 49 | – | Cn1cc(-c2ccc(-c3cncc(Cl)c3N3CCC4(CC3)NCCNC4=O)cc2)cn1 [Example 71, 9-{3-Chloro-5-[4-(1-methyl-1H-pyrazol-4-yl)-phenyl]-pyridin-4-yl}-1,4,9-triaza-spiro[5.5]undecan-5-one]
19 | 0.66 | 66 | – | C#Cc1cncc(-c2ccc3c(c2)CS(=O)(=O)N3C)c1N1CCC2(CCNC2=O)CC1 [Example 81, 8-[3-Ethynyl-5-(1-methyl-2,2-dioxo-2,3-dihydro-1H-2l6-benzo[c]isothiazol-5-yl)-pyridin-4-yl]-2,8-diaza-spiro[4.5]decan-1-one]
20 | 0.7 | 51 | – | CN1c2ccc(-c3cncc(Cl)c3N3CCC(C#N)(CO)CC3)cc2CS1(=O)=O [Example 85, 5′-Chloro-4-hydroxymethyl-3′-(1-methyl-2,2-dioxo-2,3-dihydro-1H-2l6-benzo[c]isothiazol-5-yl)-3,4,5,6-tetrahydro-2H-[1,4′]bipyridinyl-4-carbonitrile]
21 | 0.92 | 82 | – | CCC1=NNC(=O)C12CCN(c1c(Cl)cncc1-c1ccc(-c3cnn(C)c3)cc1)CC2 [Example 54, 8-{3-Chloro-5-[4-(1-methyl-1H-pyrazol-4-yl)-phenyl]-pyridin-4-yl}-4-ethyl-2,3,8-triaza-spiro[4.5]dec-3-en-1-one]
22 | 12 | 17 | – | CN1C(=O)Cc2ccc(-c3cncc(Cl)c3N3CCC(N)(C(N)=O)CC3)cc21 [Example 73, 4-Amino-5′-chloro-3′-(1-methyl-2-oxo-2,3-dihydro-1H-indol-6-yl)-3,4,5,6-tetrahydro-2H-[1,4′]bipyridinyl-4-carboxylic acid amide]
23 | 43 | – | 24 | Cn1cc(-c2ccc(-c3cncc(F)c3N3CCC4(CC3)CNC(=O)O4)cc2)cn1 [Example 79, 8-{3-Fluoro-5-[4-(1-methyl-1H-pyrazol-4-yl)-phenyl]-pyridin-4-yl}-1-oxa-3,8-diaza-spiro[4.5]decan-2-one]
